Data: patent publication US20100069480A1, “METHODS AND COMPOSITIONS FOR THE TREATMENT OF CANCER” (Bionovo, Inc. A Delaware Corporation, priority 2008, published 2010)

Key:
Format in all cases: cell-based, human
[1] = system: MDA MB 231 and SKBr3 breast cancer cells; test: induction of ROS, CM-H2DCFDA fluorescence; details: for induction of cellular ROS: CM-H2DCFDA probe
Protocol: (§1) The following parameters were examined: • 1. Induction of the loss of the mitochondrial transmembrane potential (MTP). […] Induction of reactive oxygen species (ROS). Induced fluorescence from the cell permeable indicators of ROS such as dihydroethidium (specific for superoxide) (FIG. 2), CM-H2DCFDA (most types of ROS) (FIG. 1) and MitoSOX (mitochondrially derived superoxide) (FIG. 3) was studied using a fluorescent plate reader and FACS. • 3. Compounds were also tested for the potential cellular sources of ROS induced using either specific indicators for ROS of mitochondrial origin, and/or specific inhibitors of ROS production by known sources such as mitochondria, ubiquinone oxidoreductase NQO (mitochondrial complex I) and NADPH oxidases. • 4. Compounds were tested for induction of DNA damage using test known as comet assay that allows detection of DNA damage in individual cells. (FIG. 4) • 5. The induction of death in cells treated with the compounds was examined using propidium iodide test for cell permeability followed by analysis on FACS. • 6. The mode of cell death (i.e., apoptosis versus necrosis) was studied using several criteria: conversion of cells to positivity for binding Annexin V; DNA fragmentation (characteristic of apoptotic death) and decrease in cellular ATP levels (commonly observed during necrotic death) (FIG. 5). […]
DCFDA is nonfluorescent in reduced form and is readily membrane-permeant. Cellular esterases cleave its acetate groups. The thiol-reactive chloromethyl group then binds to cellular thiols, trapping the dye inside the cell, where oxidation converts it to the fluorescent form. CM-H2DCFDA is oxidized by cellular hydrogen peroxide, hydroxyl radicals, and various free radical products lying downstream from hydrogen peroxide. It is relatively insensitive to oxidation by superoxide. However, because hydrogen peroxide is produced by dismutation of superoxide, CM-H2DCFDA serves as an indirect indicator of superoxide production.
FIG. 1. […] The indicated compounds were added to cells at 20 μg/ml growth medium, followed by addition of 10 μM CM-H2 DCFDA. Inhibitor of mitochondrial respiration, NaN3, was added at 10 mM. After 30 minute incubation, cells were washed in PBS and analyzed on FACScan for fluorescence.

[2] = system: MDA MB 231 and SKBr3 breast cancer cells; test: mode of cell death: Annexin V binding, DNA fragmentation
Protocol: The following parameters were examined: • 1. Induction of the loss of the mitochondrial transmembrane potential (MTP). […] Induction of reactive oxygen species (ROS). Induced fluorescence from the cell permeable indicators of ROS such as dihydroethidium (specific for superoxide) (FIG. 2), CM-H2DCFDA (most types of ROS) (FIG. 1) and MitoSOX (mitochondrially derived superoxide) (FIG. 3) was studied using a fluorescent plate reader and FACS. • 3. Compounds were also tested for the potential cellular sources of ROS induced using either specific indicators for ROS of mitochondrial origin, and/or specific inhibitors of ROS production by known sources such as mitochondria, ubiquinone oxidoreductase NQO (mitochondrial complex I) and NADPH oxidases. • 4. Compounds were tested for induction of DNA damage using test known as comet assay that allows detection of DNA damage in individual cells. (FIG. 4) • 5. The induction of death in cells treated with the compounds was examined using propidium iodide test for cell permeability followed by analysis on FACS. • 6. The mode of cell death (i.e., apoptosis versus necrosis) was studied using several criteria: conversion of cells to positivity for binding Annexin V; DNA fragmentation (characteristic of apoptotic death) and decrease in cellular ATP levels (commonly observed during necrotic death) (FIG. 5). 1. Induction of the loss of the mitochondrial transmembrane potential (MTP). […] Induction of reactive oxygen species (ROS). Induced fluorescence from the cell permeable indicators of ROS such as dihydroethidium (specific for superoxide) (FIG. 2), CM-H2DCFDA (most types of ROS) (FIG. 1) and MitoSOX (mitochondrially derived superoxide) (FIG. 3) was studied using a fluorescent plate reader and FACS. • 3. Compounds were also tested for the potential cellular sources of ROS induced using either specific indicators for ROS of mitochondrial origin, and/or specific inhibitors of ROS production by known sources such as mitochondria, ubiquinone oxidoreductase NQO (mitochondrial complex I) and NADPH oxidases. • 4. […]

[3] = system: MDA MB 231 and SKBr3 breast cancer cells; test: DNA damage, comet assay
Protocol: as §1

[4] = system: MDA MB 231 and SKBr3 breast cancer cells; test: mitochondrially derived superoxide, MitoSOX
Protocol: (§2) The following parameters were examined: • 1. Induction of the loss of the mitochondrial transmembrane potential (MTP). […] Induction of reactive oxygen species (ROS). Induced fluorescence from the cell permeable indicators of ROS such as dihydroethidium (specific for superoxide) (FIG. 2), CM-H2DCFDA (most types of ROS) (FIG. 1) and MitoSOX (mitochondrially derived superoxide) (FIG. 3) was studied using a fluorescent plate reader and FACS. • 3. Compounds were also tested for the potential cellular sources of ROS induced using either specific indicators for ROS of mitochondrial origin, and/or specific inhibitors of ROS production by known sources such as mitochondria, ubiquinone oxidoreductase NQO (mitochondrial complex I) and NADPH oxidases. • 4. Compounds were tested for induction of DNA damage using test known as comet assay that allows detection of DNA damage in individual cells. (FIG. 4) • 5. The induction of death in cells treated with the compounds was examined using propidium iodide test for cell permeability followed by analysis on FACS. • 6. […] Induced fluorescence from the cell permeable indicators of ROS such as dihydroethidium (specific for superoxide) (FIG. 2), CM-H2DCFDA (most types of ROS) (FIG. 1) and MitoSOX (mitochondrially derived superoxide) (FIG. 3) was studied using a fluorescent plate reader and FACS. • 3. […]

[5] = system: MDA MB 231 and SKBr3 breast cancer cells; test: cellular ATP content, ATP bioluminescence assay
Protocol: as §2

[6] = Table 11, confirmed in two breast cancer cell lines

SMILES | Induction of ROS (fold) [1, 6] [fold] | cell death and its mode [2] | induction of cellular ROS [1] | Induction of ROS (fold) ([1]; Table 12) | induction of DNA damage [3] | Induction of ROS (fold) ([1]; Table 11, confirmed in two breast cancer cell lines, listed as cmpd 9) | conversion of MitoSOX, detector of mitochondrially derived superoxide [4] | change in cellular ATP levels [5]
O=c1cc(-c2ccc(O)cc2)oc2cc(O)cc(O)c12 [cmpd 4] | 0.6 |  |  |  |  |  |  | 
O=c1cc(-c2ccc(O)cc2)oc2c(O)c(O)cc(O)c12 [Isoscutellarein] | 1.5 | cell death that has hallmarks of programmed necrosis | induce ROS, but of extra-mitochondrial origin | 1.5 | induce DNA damage |  |  | 
O=c1cc(-c2ccc(O)cc2)oc2cc(O)cc(O)c12 [Apigenin] |  | induce significant cell death characterized as apoptotic |  | 1.5 | do not induce DNA damage | 1.5 | converted to its fluorescent form | slight but consistent increase in ATP levels
O=C1CC(c2ccc(O)cc2)Oc2c(O)c(O)cc(O)c21 (centres unmarked) [Isocarthamidin] |  |  | induce ROS, but of extra-mitochondrial origin |  | induce DNA damage |  |  | 
O=c1cc(-c2ccc(O)cc2)oc2cc(O)c(O)c(O)c12 [Scutellarein] | 2.4 | cell death that has hallmarks of programmed necrosis | induce ROS, but of extra-mitochondrial origin |  | induce DNA damage |  |  | 
O=C1CC(c2ccc(O)cc2)Oc2cc(O)c(O)c(O)c21 (centres unmarked) [Carthamidin] |  |  | induce ROS, but of extra-mitochondrial origin |  | induce DNA damage |  |  | 
